Laboratory results: PMC6627486, “Ipomoeassin F Binds Sec61α to Inhibit Protein Translocation” (Journal of the American Chemical Society, 2019)

Tests used:
[1] = test system: A2780 human ovarian cancer cells; set-up: method as in PMID 15844934; details: read-out: IC50, proliferation of A2780 cells; cited from earlier work
MDA-MB-231 = experiment: AlamarBlue cytotoxicity assay, MDA-MB-231; format: cell-based, human; details: MDA-MB-231, 72 h, AlamarBlue; read-out: Cytotoxicity (IC50)
Method: (§1) AlamarBlue Cytotoxicity Assay
(§2) MDA-MB-231, MCF-10A and HCT116. Viable cells were counted with a hemocytometer immediately before each experiment . Experiments were done in triplicate. First, 100 μL of MDA-MB-231 cells or MCF-10A cells at the density of 50,000 cells/mL was seeded in a 96-well plate (5,000 cells/well) and then incubated at 37 °C and 5% CO2 for 24 h. The compounds were dissolved in DMSO (dimethyl sulfoxide) to make drug stocks (10 mM). The stock solutions were diluted with the complete DMEM high glucose culture medium to make a series of gradient fresh working solutions right before each test. Subsequently, the cells were treated with 100 μL of the freshly made gradient working solution in a total volume of 200 μL/well for 72 h. After that, the media were discarded and 200 μL of the fresh complete medium containing 10% of AlamarBlue (resazurin) stock solution was added to each well. The plate was then incubated at 37 °C and 5% CO2 for another 3 h. Emission of each well at 620 nm was detected by a microplate reader (BioTek Synergy H1) at excitation 580 nm. […]
(§3) Microplate Reader. The percentage of viability compared to the negative control (DMSO-treated cells) […]
(§4) was determined. […]

MCF7 = experiment: MTT cytotoxicity assay, MCF7; format: cell-based, human; details: MCF7, 72 h, MTT; read-out: Cytotoxicity (IC50)
Method: Two human breast cancer cell lines (MDA-MB-231 and MCF7) and one human breast non-tumorigenic epithelial cell line (MCF-10A) were maintained in a DMEM high glucose culture medium supplemented with 10% fetal bovine serum (FBS) and 2 mM L-glutamine. The cells were grown in a humidified atmosphere of 5% CO2 and 95% air at 37 °C . The culture medi um w as changed every 2–4 days depending on cell density. Cell cultures were passaged once a week using 0.125% trypsin-EDTA to detach the cells from culture flasks/dishes.
The human colorectal cancer cell line HCT116 was maintained in McCoy’s 5A (modified) medium supplemented with 10% fetal bovine serum (FBS). The human embryonic kidney (HEK293T and HEK293 FRT TRex) cell line was maintained in DMEM high glucose culture medium supplemented with 10% fetal bovine serum (FBS).
HepG2 cells were cultured in DMEM supplemented with 10% fetal bovine serum and 2 mM L-glutamine at 37°C under 5% CO2.
Viable cells were counted with a hemocytometer immediately before each experiment. Experiments were done in triplicate. First, 100 μL of MCF7 cells at the density of 50,000 cells/mL were seeded in a 96-well plate (5,000 cells/well), which was incubated at 37 °C and 5% CO2 atmosphere for 24 h. The compounds were dissolved in DMSO (dimethyl sulfoxide) to make drug stocks (10 mM). The stock solutions were diluted with the complete DMEM high glucose culture medium to make a series of gradient fresh working solutions right before each test. Subsequently, the cells were treated with 100 μL of the freshly made gradient working solution in a total volume of 200 μL/well for 72 h. After that, the media were discarded and 200 μL of the fresh complete medium containing 10% of MTT stock solution (5 mg/mL) was added to each well. The plate was then incubated at 37 °C and 5% CO2 for 3 h. Next, 180 μL of the medium was discarded from each well , and 180 μL of DMSO was added to each well to dissol ve formazan crystals. Absorbance of formazan was detected by a microplate reader (BioTek Synergy H1) at 570 nm with 650 nm as the reference wavelength. The percentage of viability compared to the negative control (DMSO-treated cells) was determined . GraphPad Prism 6 software was used to make a plot of %

MCF-10A = experiment: AlamarBlue cytotoxicity assay, MCF-10A; format: cell-based, human; details: 72 h
Method: as §1, §2, §3, §4

HCT116 = experiment: cells; format: cell-based; details: Homo sapiens, HCT-116; HCT116, 72 h, Alamar Blue, assayed separately; read-out: Cytotoxicity (IC50)
Method: as §1
as §2, with “nm. For HCT116 WT and mutant lines, cells were seeded at 1000 cells/ well in complete McCoys medium. Compounds were diluted from a DMSO stock into culture medium as described above. Cells were treated for 96 h, then viability measured with AlamarBlue, detected using the conditions described but with a BMG Fluostar Optima Microplate Reader. The percentage of viability compared to the negative control (DMSO-treated cells) was determined.” for “nm.”
HCT116 and HEK293T. Viable cells were counted using an automated cell counter (BioRad TC20) before each experiment. […] Emission of each well at 620 nm was detected by a microplate reader (Perkin Elmer EnSpire) at excitation 580 nm. The percentage of viability compared to the negative control (DMSO -treated cells) was determined. […]
Figure S1. […] (C) HCT116 colon carcinoma cells were treated with increasing concentrations of analogues 8, 14, 15, CT8, ipomoeassin F or carrier (0.1% DMSO) and cell viability was assessed at 72 h by the Alamar Blue assay (mean ± S.D., n = 4). […]

[2] = molecular target: T1, Sec61-mediated protein translocation (Canis lupus familiaris, UniProt P38377); experiment: In vitro translation and Sec61-dependent translocation into ER microsomes; format: biochemical, canine; details: type II membrane protein Ii, ER microsomes
T1 construct: ER microsomes derived from canine pancreas; from tissue; host or cells: canine pancreas ER microsomes (nuclease-treated)
T1 sequence (P38377 whole entry): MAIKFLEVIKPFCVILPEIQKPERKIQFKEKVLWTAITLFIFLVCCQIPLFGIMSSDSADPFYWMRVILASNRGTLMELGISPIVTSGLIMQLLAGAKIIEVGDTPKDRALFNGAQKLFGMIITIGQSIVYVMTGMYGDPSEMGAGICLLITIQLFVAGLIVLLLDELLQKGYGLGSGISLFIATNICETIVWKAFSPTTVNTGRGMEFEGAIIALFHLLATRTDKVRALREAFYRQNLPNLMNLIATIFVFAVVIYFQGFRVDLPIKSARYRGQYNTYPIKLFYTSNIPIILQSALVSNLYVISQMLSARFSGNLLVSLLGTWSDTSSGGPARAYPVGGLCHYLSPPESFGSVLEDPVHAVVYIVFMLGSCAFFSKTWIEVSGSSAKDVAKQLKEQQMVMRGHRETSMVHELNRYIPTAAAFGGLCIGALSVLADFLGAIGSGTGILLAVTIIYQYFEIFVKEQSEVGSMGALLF
T1 sequence (P60467 whole entry, further chain): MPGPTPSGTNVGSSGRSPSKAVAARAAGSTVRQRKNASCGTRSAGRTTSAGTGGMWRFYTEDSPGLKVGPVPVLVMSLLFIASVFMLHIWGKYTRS
T1 sequence (P60058 whole entry, further chain): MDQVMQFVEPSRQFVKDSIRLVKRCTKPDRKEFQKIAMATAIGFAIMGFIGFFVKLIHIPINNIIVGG
Text: In Vitro Membrane Translocation Assays.
Unless otherwise stated, all cDNAs are of human origin and as previously described: CytB5OPG2,16 GypC,17 ppαF (Saccharomyces cerevisiae),16 ppcecAOPG2 (Hyalophora cecropia),16 PPL (Bos Taurus),16 Sec61βOPG216 and VCAM1.17 Ii encodes residues 17 to 232 of the short form of human HLA class II histocompatibility antigen gamma chain (Ii; P04232, isoform 2). Linear DNA templates were generated by PCR and transcribed into RNA using T7 or SP6 polymerase (Promega).
In vitro translation and translocation into ER microsomes
Translation reactions (20 μL) were performed in nuclease-treated rabbit reticulocyte lysate (Promega) in the presence of EasyTag EXPRESS 35S Protein Labelling Mix containing [35S] methionine (Perkin Elmer) (0.533 MBq; 30.15 TBq/mmol). Amino acids minus methionine (Promega) were added to 25 µM each, […]
equivalent volume of DMSO, and nuclease-treated ER microsomes (from stock with OD280 = 44/mL) were added to 6.5% (v/v). Lastly, 10% volume of in vitro transcribed mRNA (from 200-1000 ng/μL stocks) encoding the relevant precursor protein was added and translation reactions performed for 20 min at 30°C. Following incubation with 0.1 mM puromycin for 5 min at 30°C to ensure translational termination and ribosome release, membrane-associated fractions were isolated by centrifugation through an 80 μL high-salt cushion (0.75 M sucrose, 0.5 M KOAc, 5 mM Mg(OAc)2, 50 mM Hepes-KOH, pH 7.9) at 100,000 x g for 10 min at 4°C in a TLA100 rotor (Beckmann). Membrane pellets were suspended directly in SDS (sodium dodecyl sulphate) sample buffer (0.02% bromophenol blue, 62.5 mM, 4% (w/v) SDS, 10% (v/v) glycerol, pH 7.6, 1 M dithiothreitol) and, where indicated, treated with 1,000 U of Endoglycosidase H (New England Biolabs) for 30 min at 37°C prior to analysis. All samples were denatured for 10 min at 70°C prior to resolution by SDS-PAGE (12% or 16% polyacrylamide gels, 120 V, 120 min), gels were fixed (20% MeOH, 10% AcOH) for 5 min, dried (BioRad gel dryer) for 2 h at 65°C and, following exposure to a phosphorimaging plate for 24-72 h, radiolabelled products were visualised using a Typhoon FLA-7000 (GE Healthcare).
Quantitative analysis of Ii membrane insertion was performed using AIDA v.5.0 (Raytest Isotopenmeβgeräte) whereby the ratio of the signal intensity for the 2Gly/0Gly forms was used as a read-out to estimate efficiency of integration into the ER membrane. This value was then expressed relative to the matched DMSO control in order to derive the mean relative ER insertion from three independent experiments (n=3). Statistical significance of the effectiveness of Ipom-F analogues (RM one-way ANOVA) was determined using Tukey’s multiple comparisons test. IC50 value estimates were determined using non-linear regression to fit data to a curve of variable slope (four parameters) using the least squares fitting method in which the bottom and top plateaus of the curve were defined as 0% and 100% respectively. The differences between the estimated IC50 values for the three compounds analysed were statistically significant (****) according to the extra-sum-of-squares F test. Statistical analyses and IC50 estimates were performed using Prism 7.0d (GraphPad) with statistical significance given as n.s., non - significant and ****, P < 0.0001.
U2-OS secNLuc-ATZ Secretion and Cell Viability Assays

HCT-116 cells = experiment: Metabolic labelling of nascent proteins in HCT116 cells; format: cell-based, human; details: HCT-116, 1 μM, 35S labelling
Method: Metabolic Labelling Assays in HCT116 Cells
HCT116 cells were counted using an automated cell counter (BioRad TC20) immediately prior to each experiment. 3 ml of HCT116 cells at a density of 0.166x10^6 cells/mL were seeded to 6-well plates (0.5x10^6 cells/well) and then incubated at 37 °C and 5% CO 2 for 24 h. The compounds were dissolved in DMSO to make drug stocks (10 mM). The stock solutions were diluted with DMEM high glucose culture medium lacking methionine and cysteine to make a fresh working solution immediately prior to each test. Cells were washed twice and 1ml of fresh DMEM lacking methionine and cysteine was added to each well.
Subsequently, the cells were treated with 250 µl of compound solutions in a total volume of 1 ,250 µl/well.
The plate was then incubated at 37 °C and 5% CO 2 for 30 min before 100 µCi 35S-labelled methionine/cysteine was added (Expre35s35s protein labelling mix). Plates were incubated for a further 30 min, then media collected and cells harvested by scraping after four washes in ice-cold PBS. Total protein was acquired by RIPA extraction from the cell pellet, cytoplasmic fraction was acquired by partial permeabilization of the outer cell membranes with 0.15% Digitonin followed by centrifugation, secreted proteins were acquired by TCA precipitation of the media. […]

C/C=C(\C)C(=O)O[C@@H]1[C@@H](O)[C@@H]2O[C@H]3[C@H](O[C@@H](CCC)CCCCC[C@H](OC(C)=O)C(=O)CCC(=O)OC[C@@H](O2)[C@H]1OC(=O)/C=C/c1ccccc1)O[C@H](C)[C@H](OC(C)=O)[C@@H]3O [ipomoeassin D]
IC50 [1]: 35 nM

C/C=C(\C)C(=O)O[C@@H]1[C@@H](O)[C@@H]2O[C@H]3[C@H](O[C@@H](CCCCC)CCCCCCC(=O)CCC(=O)OC[C@@H](O2)[C@H]1OC(=O)/C=C/c1ccc(OCc2cn(CCOCCOCCOCCNS(=O)(=O)c4ccc(-c5c6ccc(=[N+](CC)CC)cc-6oc6cc(N(CC)CC)ccc56)c(S(=O)(=O)[O-])c4)nn2)cc1)O[C@H](C)[C@H](OC(C)=O)[C@@H]3O [compound 12]
IC50 (MDA-MB-231): 253 nM
IC50 (MCF7): 172 nM
IC50 (MCF-10A): 134 nM

C/C=C(\C)C(=O)O[C@@H]1[C@@H](O)[C@@H]2O[C@H]3[C@H](O[C@@H](CCCCC)CCCCCCC(=O)CCC(=O)OC[C@@H](O2)[C@H]1OC(=O)CCc1ccccc1)O[C@H](C)[C@H](OC(C)=O)[C@@H]3O [compound 14]
IC50 (HCT116): 1870 nM
inhibition of Ii membrane insertion [2]: far less effective inhibitor
inhibition of production of secreted proteins compared with ipomoeassin F (HCT-116 cells): less potently
